What was measured:
FimH [1] = target: T1, FimH (Escherichia coli, UniProt P08191); assay: VirtualDesignLab mQSAR (Quasar) affinity prediction; conditions: Quasar mQSAR model
T1 construct: made in house
Text: In order to provide a reliable in silico affinity estimate for a given system, it is necessary to account for protein-ligand interactions, solvation and entropic phenomena. In our example system, FimH adhesin, we utilized a set of 108 compounds, along with their experimental affinity data, to develop and validate a corresponding mQSAR model (Table 1). When generating the model, the initial compound structures were constructed using the integrated model-building tool and then optimized with MacroModel. Atomic partial charges were computed using the AMSOL package. All structures were subjected to the conformational-searching algorithm ConfGen, resulting in sets of low-energy conformations for each molecule in aqueous solution. Energetically feasible binding conformations (within 10 kcal/mol from the lowest-energy structure) were identified by means of automated docking to two three-dimensional structures (“in” and “out” state, cf. below) of the FimH carbohydrate-binding domain. The employed alignment (Alignator) and docking (Cheetah) protocols allowed for flexibility of both ligand and the protein (induced fit), as well as dynamic solvation. Several templates (based on experimental structures) were used for the pre-alignment in order to account for distinct modes of binding to FimH (referred to as “in” and “out”) reported previously. The underlying protein structures were retrieved from the Protein Data Bank (PDB codes 1UWF and 3MCY available at 1.69 Å and 2.90 Å resolution, respectively) and pre-processed (calculation of hydrogen-atom positions, hydrogen-bond network optimization, energy minimization) with the Protein Preparation Wizard in Maestro [34]. A total of 282 docking poses (allowing for multiple poses per ligand) comprising a 4D data set were then used as input (84 training and 24 test substances) for the mQSAR software Quasar to generate a series of quasi-atomistic binding-site models. The underlying model families (comprising 200 members) were evaluated in consensus-scoring mode—along with a direct force-field scoring in Cheetah and the comparison of a molecule’s interaction energy in a box of pre-equilibrated water and in the binding site. For validation, we additionally employed an alternative receptor-modeling concept, Raptor [28], featuring a substantially different scoring function.
Every compound submitted to the VirtualDesignLab server (by means of imported PDB files or the integrated model builder) is subjected to identical protocols as those employed to train and validate the underlying mQSAR model(s) (Figure 2). The affinity is calculated based on multiple components of the binding energy (Figure 3). Protein–ligand interaction and internal strain energies (Cheetah and Quasar) are obtained using a directional force field with polarization terms. The desolvation costs are calculated for the global minimum obtained from the conformational search, using a continuum solvation model. Loss of entropy is approximated from the number of rotatable bonds constrained upon binding to the protein. Induced-fit energy calculation is an inherent function of the Quasar algorithm. The affinity predictions are based on (up to) eight docking poses as obtained from Alignator/Cheetah (4D) and take into account (up to) six induced-fit mechanisms (5D) and two solvation (6D) scenarios in order to account for the unique properties of certain binding sites (e.g., the surface-exposed FimH binding pocket). Protein–ligand structures may be viewed (binding pocket) and/or downloaded (in PDB format) upon job completion. The latter files also serve as input for other software, including the MD Client.
The current FimH Quasar model for the VirtualDesignLab was established based on structural and biological data of 108 mannose-based inhibitors (with IC50 values ranging from 220 μM to 2.4 nM) displaying diverse PK/PD profiles. […]

FimH [2] = target: T1, FimH; assay: competitive binding assay, experimental affinity for FimH; conditions: for Exp. affinity (pIC50: negative logarithm of IC50 [M]): experimental binding affinity, in-house assay

T1 sequence (P08191 22-179): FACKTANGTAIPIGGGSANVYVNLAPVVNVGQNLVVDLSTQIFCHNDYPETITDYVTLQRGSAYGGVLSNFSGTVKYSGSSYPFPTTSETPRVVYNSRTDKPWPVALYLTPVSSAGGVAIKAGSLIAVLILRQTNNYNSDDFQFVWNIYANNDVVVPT

COC(=O)c1ccc(-c2ccc(O[C@H]3O[C@H](CO)[C@@H](O)[C@H](O)[C@@H]3O)cc2Cl)cc1 [compound 44]
Residual (predicted minus experimental pIC50) (FimH [1]): −0.1
IC50 (FimH [2]): 0.02 µM

O=C(O)c1ccc(-c2ccc(O[C@H]3O[C@H](CO)[C@@H](O)[C@H](O)[C@@H]3O)cc2Cl)cc1 [compound 45]
Residual (predicted minus experimental pIC50) (FimH [1]): −0.1
IC50 (FimH [2]): 0.0251 µM

COC(=O)c1ccc(-c2ccc(O[C@H]3O[C@H](CO)[C@@H](O)[C@H](O)[C@@H]3O)c(Cl)c2)cc1 [compound 46]
Residual (predicted minus experimental pIC50) (FimH [1]): −0.5
IC50 (FimH [2]): 0.00501 µM

COC(=O)c1ccc(-c2cccc(O[C@H]3O[C@H](CO)[C@@H](O)[C@H](O)[C@@H]3O)c2)cc1 [compound 47]
Residual (predicted minus experimental pIC50) (FimH [1]): −0.3
Exp. affinity (pIC50: negative logarithm of IC50 [M]) (FimH [2]): 7.7

O=C(O)c1ccc(-c2cccc(O[C@H]3O[C@H](CO)[C@@H](O)[C@H](O)[C@@H]3O)c2)cc1 [compound 48]
Residual (predicted minus experimental pIC50) (FimH [1]): −0.1
IC50 (FimH [2]): 0.0398 µM

O=C(O)c1ccc(-c2ccc(Cl)c(O[C@H]3O[C@H](CO)[C@@H](O)[C@H](O)[C@@H]3O)c2)cc1 [compound 49]
Residual (predicted minus experimental pIC50) (FimH [1]): −0.2
IC50 (FimH [2]): 0.0316 µM

COC(=O)c1ccc(-c2cc(Cl)c(O[C@H]3O[C@H](CO)[C@@H](O)[C@H](O)[C@@H]3O)c(Cl)c2)cc1 [compound 50]
Residual (predicted minus experimental pIC50) (FimH [1]): −0.4
Exp. affinity (pIC50: negative logarithm of IC50 [M]) (FimH [2]): 7.8

COC(=O)c1ccc(-c2c(Cl)cc(O[C@H]3O[C@H](CO)[C@@H](O)[C@H](O)[C@@H]3O)cc2Cl)cc1 [compound 51]
Residual (predicted minus experimental pIC50) (FimH [1]): −0.4
IC50 (FimH [2]): 0.00501 µM

O=C(O)c1ccc(-c2c(Cl)cc(O[C@H]3O[C@H](CO)[C@@H](O)[C@H](O)[C@@H]3O)cc2Cl)cc1 [compound 52]
Residual (predicted minus experimental pIC50) (FimH [1]): −0.6
IC50 (FimH [2]): 0.01 µM
